Source: patent US20160136193A1, “TREATMENT OF SYMPTOMS ASSOCIATED WITH BACTERIAL VAGINOSIS” (IDH Holding ApS, priority 2003, published 2016)

Tests used:
Bacterial Vaginosis = details: cited from earlier work
[1] = system: symptoms associated with bacterial vaginosis; test: Treatment of a person with recurrent vaginal fishy-smelling secretions (Example 9); assay type: in vivo, human; details: after two 7-day treatments
Procedure: A person had suffered from discomfort and vaginal secretions of fishy smell recurring after two 7-day treatments with metronidazole. The vaginal pH was approximately 5.3, varying between 5.0 and 5.5.
A lactose suspension (1-3 ml) as prepared in Example 8 was instilled into the vagina twice daily. After approximately 24 hours the pH lowered to 4.7 and the fishy odor disappeared. Continuous application once a day further lowered the pH down to approximately 4.4. The treatment was continued for 4 days.
After 4 days symptoms such as the fishy odor recurred; however, the symptoms disappeared after one day of the treatment described above.

Compound	side effects (Bacterial Vaginosis; 7-day treatment)	discomfort and vaginal secretions of fishy smell after treatment [1]	cure rate (Bacterial Vaginosis; 7-day treatment, after 1 month)	benefits in studies (Bacterial Vaginosis; alternative measures)
CCC[C@@H]1C[C@@H](C(=O)N[C@@H]([C@H]2O[C@H](SC)[C@H](O)[C@@H](O)[C@H]2O)[C@H](C)Cl)N(C)C1 [Clindamycin]	less, though diarrhea is possible			
Cc1ncc([N+](=O)[O-])n1CCO [Metronidazole]	nausea, abdominal cramps and a metallic taste	recurring	80-90%	
Lactobacillus acidophilus				have not demonstrated benefits
